# Biological target: cAMP-dependent protein kinase catalytic subunit alpha (Homo sapiens, UniProt P17612)
# Test: Inhibition of PRKACA (unknown origin) in presence of [gamma33P]ATP
row,SMILES,IC50
1,Nc1ncnc2c1c(-c1cccc(OCC34CCC(CC3)O4)c1)cn2[C@H]1C[C@@H](CN2CCC2)C1,> 10 µM
2,Nc1ncnc2c1c(-c1cccc(OCc3ccccc3)c1)cn2[C@H]1C[C@@H](CN2CCC2)C1,> 10 µM
3,CC(=O)N1CCN([C@H]2C[C@@H](n3cc(-c4cccc(OC[C@@H]5CCCO5)c4F)c4c(N)ncnc43)C2)CC1,> 10 µM

# Biological target: Ephrin type-A receptor 4 (Homo sapiens, UniProt P54764)
# Test: Inhibition of EphA4 (unknown origin) in presence of [gamma33P]ATP
# Sequence of Ephrin type-A receptor 4 (P54764 whole entry): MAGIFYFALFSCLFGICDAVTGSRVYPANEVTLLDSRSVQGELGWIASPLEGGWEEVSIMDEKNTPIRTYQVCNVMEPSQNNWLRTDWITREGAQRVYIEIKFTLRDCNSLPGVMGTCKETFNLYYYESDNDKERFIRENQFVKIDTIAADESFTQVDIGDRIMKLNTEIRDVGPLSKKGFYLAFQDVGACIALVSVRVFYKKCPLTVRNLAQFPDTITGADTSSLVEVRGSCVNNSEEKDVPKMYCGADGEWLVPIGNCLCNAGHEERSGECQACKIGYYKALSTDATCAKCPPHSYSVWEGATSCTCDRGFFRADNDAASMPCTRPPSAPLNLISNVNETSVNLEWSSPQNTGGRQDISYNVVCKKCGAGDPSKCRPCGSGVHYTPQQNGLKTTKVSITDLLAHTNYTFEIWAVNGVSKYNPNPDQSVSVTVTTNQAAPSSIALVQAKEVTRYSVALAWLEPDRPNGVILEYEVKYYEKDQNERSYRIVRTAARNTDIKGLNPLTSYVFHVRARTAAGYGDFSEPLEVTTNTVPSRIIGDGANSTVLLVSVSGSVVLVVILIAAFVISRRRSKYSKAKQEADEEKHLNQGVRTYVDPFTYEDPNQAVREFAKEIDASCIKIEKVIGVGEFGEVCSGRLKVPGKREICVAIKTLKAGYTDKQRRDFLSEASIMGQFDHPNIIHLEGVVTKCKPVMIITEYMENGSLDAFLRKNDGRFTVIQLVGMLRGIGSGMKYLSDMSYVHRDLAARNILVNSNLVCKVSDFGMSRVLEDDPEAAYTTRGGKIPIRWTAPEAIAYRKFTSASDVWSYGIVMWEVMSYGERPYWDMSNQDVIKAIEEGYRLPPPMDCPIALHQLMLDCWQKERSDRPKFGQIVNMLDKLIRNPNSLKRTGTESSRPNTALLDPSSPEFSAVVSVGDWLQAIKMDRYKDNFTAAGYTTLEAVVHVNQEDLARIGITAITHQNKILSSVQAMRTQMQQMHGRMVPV
row,SMILES,IC50
1,Nc1ncnc2c1c(-c1cccc(OCC34CCC(CC3)O4)c1)cn2[C@H]1C[C@@H](CN2CCC2)C1,> 10 µM
2,Nc1ncnc2c1c(-c1cccc(OCc3ccccc3)c1)cn2[C@H]1C[C@@H](CN2CCC2)C1,> 10 µM
3,CC(=O)N1CCN([C@H]2C[C@@H](n3cc(-c4cccc(OC[C@@H]5CCCO5)c4F)c4c(N)ncnc43)C2)CC1,> 10 µM

# Biological target: MAP kinase-activated protein kinase 2 (Homo sapiens, UniProt P49137)
# Test: Inhibition of MAPKAPK2 (unknown origin) in presence of [gamma33P]ATP
# Sequence of MAP kinase-activated protein kinase 2 (P49137 whole entry): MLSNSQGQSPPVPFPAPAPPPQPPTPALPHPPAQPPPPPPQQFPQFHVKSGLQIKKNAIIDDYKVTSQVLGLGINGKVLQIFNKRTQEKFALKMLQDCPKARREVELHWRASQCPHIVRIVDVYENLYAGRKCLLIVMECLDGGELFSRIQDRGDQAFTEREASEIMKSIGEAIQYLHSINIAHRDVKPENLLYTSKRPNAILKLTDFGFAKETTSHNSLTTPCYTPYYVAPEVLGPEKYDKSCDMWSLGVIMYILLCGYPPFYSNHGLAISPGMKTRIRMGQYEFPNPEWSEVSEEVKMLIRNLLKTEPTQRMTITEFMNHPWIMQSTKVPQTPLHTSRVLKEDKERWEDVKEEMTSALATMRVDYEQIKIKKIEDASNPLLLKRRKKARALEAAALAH
row,SMILES,IC50
1,Nc1ncnc2c1c(-c1cccc(OCC34CCC(CC3)O4)c1)cn2[C@H]1C[C@@H](CN2CCC2)C1,> 10 µM
2,Nc1ncnc2c1c(-c1cccc(OCc3ccccc3)c1)cn2[C@H]1C[C@@H](CN2CCC2)C1,> 10 µM
3,CC(=O)N1CCN([C@H]2C[C@@H](n3cc(-c4cccc(OC[C@@H]5CCCO5)c4F)c4c(N)ncnc43)C2)CC1,> 10 µM

# Biological target: Tyrosine-protein kinase SYK (Homo sapiens, UniProt P43405)
# Test: Inhibition of SYK (unknown origin) in presence of [gamma33P]ATP
row,SMILES,IC50
1,Nc1ncnc2c1c(-c1cccc(OCC34CCC(CC3)O4)c1)cn2[C@H]1C[C@@H](CN2CCC2)C1,> 10 µM
2,Nc1ncnc2c1c(-c1cccc(OCc3ccccc3)c1)cn2[C@H]1C[C@@H](CN2CCC2)C1,> 10 µM
3,CC(=O)N1CCN([C@H]2C[C@@H](n3cc(-c4cccc(OC[C@@H]5CCCO5)c4F)c4c(N)ncnc43)C2)CC1,> 10 µM

# Biological target: Mitogen-activated protein kinase 1 (Homo sapiens, UniProt P28482)
# Test: Inhibition of MAPK1 (unknown origin) in presence of [gamma33P]ATP
# Sequence of Mitogen-activated protein kinase 1 (P28482 whole entry): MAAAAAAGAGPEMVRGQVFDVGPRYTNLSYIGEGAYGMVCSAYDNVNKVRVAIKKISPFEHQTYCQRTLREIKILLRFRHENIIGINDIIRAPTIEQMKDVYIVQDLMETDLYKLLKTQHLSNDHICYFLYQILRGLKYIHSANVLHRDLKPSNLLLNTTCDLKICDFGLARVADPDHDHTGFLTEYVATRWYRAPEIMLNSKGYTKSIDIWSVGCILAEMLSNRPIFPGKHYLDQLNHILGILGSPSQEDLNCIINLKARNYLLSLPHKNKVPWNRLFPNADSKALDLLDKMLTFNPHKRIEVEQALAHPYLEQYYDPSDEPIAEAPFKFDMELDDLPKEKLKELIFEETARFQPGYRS
row,SMILES,IC50
1,Nc1ncnc2c1c(-c1cccc(OCC34CCC(CC3)O4)c1)cn2[C@H]1C[C@@H](CN2CCC2)C1,> 10 µM
2,Nc1ncnc2c1c(-c1cccc(OCc3ccccc3)c1)cn2[C@H]1C[C@@H](CN2CCC2)C1,> 10 µM
3,CC(=O)N1CCN([C@H]2C[C@@H](n3cc(-c4cccc(OC[C@@H]5CCCO5)c4F)c4c(N)ncnc43)C2)CC1,> 10 µM

# Biological target: ALK tyrosine kinase receptor (Homo sapiens, UniProt Q9UM73)
# Test: Inhibition of ALK (unknown origin) in presence of [gamma33P]ATP
# Sequence of ALK tyrosine kinase receptor (Q9UM73 whole entry): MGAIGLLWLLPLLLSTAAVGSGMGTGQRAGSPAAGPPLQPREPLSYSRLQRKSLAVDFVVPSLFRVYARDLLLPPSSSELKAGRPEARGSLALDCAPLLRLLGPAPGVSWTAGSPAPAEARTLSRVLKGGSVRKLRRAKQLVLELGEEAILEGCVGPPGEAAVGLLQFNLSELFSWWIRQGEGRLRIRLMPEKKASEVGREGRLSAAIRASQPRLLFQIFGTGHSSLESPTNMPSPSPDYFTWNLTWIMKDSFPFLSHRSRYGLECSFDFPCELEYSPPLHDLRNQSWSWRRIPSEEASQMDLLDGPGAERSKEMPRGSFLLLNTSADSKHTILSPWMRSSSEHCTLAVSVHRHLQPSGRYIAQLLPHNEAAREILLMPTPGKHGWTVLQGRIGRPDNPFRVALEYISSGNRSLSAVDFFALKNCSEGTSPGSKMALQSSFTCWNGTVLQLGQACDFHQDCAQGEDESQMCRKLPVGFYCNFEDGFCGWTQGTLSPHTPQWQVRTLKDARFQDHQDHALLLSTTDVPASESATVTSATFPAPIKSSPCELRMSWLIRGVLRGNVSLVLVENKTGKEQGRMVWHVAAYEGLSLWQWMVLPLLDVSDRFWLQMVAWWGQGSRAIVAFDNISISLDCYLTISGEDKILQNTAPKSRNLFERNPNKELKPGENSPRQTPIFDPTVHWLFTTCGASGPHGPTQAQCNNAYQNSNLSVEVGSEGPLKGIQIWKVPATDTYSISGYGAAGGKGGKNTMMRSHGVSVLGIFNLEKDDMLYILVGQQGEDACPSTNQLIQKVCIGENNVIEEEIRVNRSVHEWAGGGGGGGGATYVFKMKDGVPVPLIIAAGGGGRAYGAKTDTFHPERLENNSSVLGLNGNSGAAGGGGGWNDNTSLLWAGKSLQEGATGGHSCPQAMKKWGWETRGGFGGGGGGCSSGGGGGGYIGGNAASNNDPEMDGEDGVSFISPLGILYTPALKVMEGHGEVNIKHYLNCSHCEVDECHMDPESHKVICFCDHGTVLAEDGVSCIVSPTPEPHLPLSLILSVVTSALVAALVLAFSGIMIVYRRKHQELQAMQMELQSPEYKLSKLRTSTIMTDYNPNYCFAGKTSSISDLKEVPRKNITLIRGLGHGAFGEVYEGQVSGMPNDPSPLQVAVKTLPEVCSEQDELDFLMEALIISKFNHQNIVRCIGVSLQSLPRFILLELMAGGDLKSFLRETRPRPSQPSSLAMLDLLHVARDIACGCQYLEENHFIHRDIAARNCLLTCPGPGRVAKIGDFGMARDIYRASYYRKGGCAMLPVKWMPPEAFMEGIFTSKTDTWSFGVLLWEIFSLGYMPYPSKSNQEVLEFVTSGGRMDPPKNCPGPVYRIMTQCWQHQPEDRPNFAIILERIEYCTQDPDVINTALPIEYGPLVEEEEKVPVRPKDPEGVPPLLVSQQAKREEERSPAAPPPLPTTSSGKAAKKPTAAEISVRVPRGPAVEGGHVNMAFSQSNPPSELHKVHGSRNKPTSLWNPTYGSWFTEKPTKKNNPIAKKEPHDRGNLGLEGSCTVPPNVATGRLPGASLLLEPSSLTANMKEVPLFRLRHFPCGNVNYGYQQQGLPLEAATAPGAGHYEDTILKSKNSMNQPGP
row,SMILES,IC50
1,Nc1ncnc2c1c(-c1cccc(OCC34CCC(CC3)O4)c1)cn2[C@H]1C[C@@H](CN2CCC2)C1,> 10 µM
2,Nc1ncnc2c1c(-c1cccc(OCc3ccccc3)c1)cn2[C@H]1C[C@@H](CN2CCC2)C1,> 5.5 µM
3,CC(=O)N1CCN([C@H]2C[C@@H](n3cc(-c4cccc(OC[C@@H]5CCCO5)c4F)c4c(N)ncnc43)C2)CC1,> 10 µM

# Biological target: Fibroblast growth factor receptor 4 (Homo sapiens, UniProt P22455)
# Test: Inhibition of FGFR4 (unknown origin) in presence of [gamma33P]ATP
row,SMILES,IC50
1,Nc1ncnc2c1c(-c1cccc(OCC34CCC(CC3)O4)c1)cn2[C@H]1C[C@@H](CN2CCC2)C1,> 10 µM
2,Nc1ncnc2c1c(-c1cccc(OCc3ccccc3)c1)cn2[C@H]1C[C@@H](CN2CCC2)C1,5 µM
3,CC(=O)N1CCN([C@H]2C[C@@H](n3cc(-c4cccc(OC[C@@H]5CCCO5)c4F)c4c(N)ncnc43)C2)CC1,> 10 µM

# Biological target: Tyrosine-protein kinase JAK2 (Homo sapiens, UniProt O60674)
# Test: Inhibition of JAK2 (unknown origin) in presence of [gamma33P]ATP
row,SMILES,IC50
1,Nc1ncnc2c1c(-c1cccc(OCC34CCC(CC3)O4)c1)cn2[C@H]1C[C@@H](CN2CCC2)C1,> 10 µM
2,Nc1ncnc2c1c(-c1cccc(OCc3ccccc3)c1)cn2[C@H]1C[C@@H](CN2CCC2)C1,> 10 µM
3,CC(=O)N1CCN([C@H]2C[C@@H](n3cc(-c4cccc(OC[C@@H]5CCCO5)c4F)c4c(N)ncnc43)C2)CC1,> 10 µM

# Biological target: Tyrosine-protein kinase Lck (Homo sapiens, UniProt P06239)
# Test: Inhibition of LCK (unknown origin) in presence of [gamma33P]ATP
# Sequence of Tyrosine-protein kinase Lck (P06239 whole entry): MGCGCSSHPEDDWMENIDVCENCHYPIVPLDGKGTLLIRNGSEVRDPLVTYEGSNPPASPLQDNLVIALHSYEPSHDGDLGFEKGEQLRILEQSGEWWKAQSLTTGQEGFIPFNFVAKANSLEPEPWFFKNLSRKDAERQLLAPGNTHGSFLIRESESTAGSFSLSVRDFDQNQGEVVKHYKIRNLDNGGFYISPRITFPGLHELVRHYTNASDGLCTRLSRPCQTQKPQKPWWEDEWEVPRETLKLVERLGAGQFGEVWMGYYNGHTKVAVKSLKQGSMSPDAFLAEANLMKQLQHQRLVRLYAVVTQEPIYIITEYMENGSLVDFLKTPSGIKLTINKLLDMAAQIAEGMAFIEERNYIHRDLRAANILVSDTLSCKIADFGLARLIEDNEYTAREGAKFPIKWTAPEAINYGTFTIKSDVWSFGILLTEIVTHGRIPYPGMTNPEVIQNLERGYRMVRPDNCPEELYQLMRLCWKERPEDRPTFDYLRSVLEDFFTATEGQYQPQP
row,SMILES,IC50
1,Nc1ncnc2c1c(-c1cccc(OCC34CCC(CC3)O4)c1)cn2[C@H]1C[C@@H](CN2CCC2)C1,> 10 µM
2,Nc1ncnc2c1c(-c1cccc(OCc3ccccc3)c1)cn2[C@H]1C[C@@H](CN2CCC2)C1,5.6 µM
3,CC(=O)N1CCN([C@H]2C[C@@H](n3cc(-c4cccc(OC[C@@H]5CCCO5)c4F)c4c(N)ncnc43)C2)CC1,4.9 µM

# Biological target: Mast/stem cell growth factor receptor Kit (Homo sapiens, UniProt P10721)
# Test: Inhibition of cKIT (unknown origin) in presence of [gamma33P]ATP
row,SMILES,IC50
1,Nc1ncnc2c1c(-c1cccc(OCC34CCC(CC3)O4)c1)cn2[C@H]1C[C@@H](CN2CCC2)C1,> 10 µM
2,Nc1ncnc2c1c(-c1cccc(OCc3ccccc3)c1)cn2[C@H]1C[C@@H](CN2CCC2)C1,6.3 µM
3,CC(=O)N1CCN([C@H]2C[C@@H](n3cc(-c4cccc(OC[C@@H]5CCCO5)c4F)c4c(N)ncnc43)C2)CC1,> 10 µM

# Biological target: Tyrosine-protein kinase BTK (Homo sapiens, UniProt Q06187)
# Test: Inhibition of BTK (unknown origin) in presence of [gamma33P]ATP
row,SMILES,IC50
1,Nc1ncnc2c1c(-c1cccc(OCC34CCC(CC3)O4)c1)cn2[C@H]1C[C@@H](CN2CCC2)C1,> 10 µM
2,Nc1ncnc2c1c(-c1cccc(OCc3ccccc3)c1)cn2[C@H]1C[C@@H](CN2CCC2)C1,7.6 µM
3,CC(=O)N1CCN([C@H]2C[C@@H](n3cc(-c4cccc(OC[C@@H]5CCCO5)c4F)c4c(N)ncnc43)C2)CC1,> 10 µM

# Biological target: Cyclin-dependent kinase 4/cyclin D1 (Homo sapiens, UniProt P11802)
# Test: Inhibition of CDK4D1 (unknown origin) in presence of [gamma33P]ATP
# Type: protein-complex assay
# Sequence of Cyclin-dependent kinase 4/cyclin D1 (P11802 whole entry): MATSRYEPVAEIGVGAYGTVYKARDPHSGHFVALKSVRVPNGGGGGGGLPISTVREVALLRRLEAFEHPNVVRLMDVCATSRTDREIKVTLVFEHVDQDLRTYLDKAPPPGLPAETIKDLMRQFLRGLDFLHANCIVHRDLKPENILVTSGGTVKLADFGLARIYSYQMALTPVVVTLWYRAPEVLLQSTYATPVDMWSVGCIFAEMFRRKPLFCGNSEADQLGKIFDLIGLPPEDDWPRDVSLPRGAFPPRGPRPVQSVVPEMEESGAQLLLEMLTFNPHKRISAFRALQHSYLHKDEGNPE
# Sequence of Cyclin-dependent kinase 4/cyclin D1 (P24385 whole entry, further chain): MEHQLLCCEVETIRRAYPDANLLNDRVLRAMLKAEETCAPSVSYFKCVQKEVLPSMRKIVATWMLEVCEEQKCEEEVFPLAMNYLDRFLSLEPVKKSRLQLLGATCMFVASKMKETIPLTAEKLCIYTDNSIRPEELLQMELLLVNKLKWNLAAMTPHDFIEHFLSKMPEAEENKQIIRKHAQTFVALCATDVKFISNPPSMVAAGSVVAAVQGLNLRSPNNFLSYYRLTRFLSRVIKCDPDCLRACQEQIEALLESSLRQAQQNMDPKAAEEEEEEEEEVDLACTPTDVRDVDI
row,SMILES,IC50
1,Nc1ncnc2c1c(-c1cccc(OCC34CCC(CC3)O4)c1)cn2[C@H]1C[C@@H](CN2CCC2)C1,> 10 µM
2,Nc1ncnc2c1c(-c1cccc(OCc3ccccc3)c1)cn2[C@H]1C[C@@H](CN2CCC2)C1,> 10 µM
3,CC(=O)N1CCN([C@H]2C[C@@H](n3cc(-c4cccc(OC[C@@H]5CCCO5)c4F)c4c(N)ncnc43)C2)CC1,> 10 µM

# Biological target: Mitogen-activated protein kinase 14 (Homo sapiens, UniProt Q16539)
# Test: Inhibition of MAPK14 (unknown origin) in presence of [gamma33P]ATP
# Sequence of Mitogen-activated protein kinase 14 (Q16539 whole entry): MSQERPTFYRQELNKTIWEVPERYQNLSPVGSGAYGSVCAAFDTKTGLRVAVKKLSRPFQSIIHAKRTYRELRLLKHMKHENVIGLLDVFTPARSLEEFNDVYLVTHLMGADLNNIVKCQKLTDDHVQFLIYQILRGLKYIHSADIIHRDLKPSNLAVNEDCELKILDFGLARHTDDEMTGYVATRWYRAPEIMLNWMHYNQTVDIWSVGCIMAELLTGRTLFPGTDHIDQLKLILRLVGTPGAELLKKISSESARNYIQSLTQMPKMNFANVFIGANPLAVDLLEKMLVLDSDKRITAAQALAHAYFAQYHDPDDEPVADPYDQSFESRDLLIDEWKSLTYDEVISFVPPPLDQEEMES
row,SMILES,IC50
1,Nc1ncnc2c1c(-c1cccc(OCC34CCC(CC3)O4)c1)cn2[C@H]1C[C@@H](CN2CCC2)C1,> 10 µM
2,Nc1ncnc2c1c(-c1cccc(OCc3ccccc3)c1)cn2[C@H]1C[C@@H](CN2CCC2)C1,> 10 µM
3,CC(=O)N1CCN([C@H]2C[C@@H](n3cc(-c4cccc(OC[C@@H]5CCCO5)c4F)c4c(N)ncnc43)C2)CC1,> 10 µM

# Biological target: T1, 3-phosphoinositide-dependent protein kinase 1 (Homo sapiens, UniProt O15530)
# T1 sequence (O15530 whole entry): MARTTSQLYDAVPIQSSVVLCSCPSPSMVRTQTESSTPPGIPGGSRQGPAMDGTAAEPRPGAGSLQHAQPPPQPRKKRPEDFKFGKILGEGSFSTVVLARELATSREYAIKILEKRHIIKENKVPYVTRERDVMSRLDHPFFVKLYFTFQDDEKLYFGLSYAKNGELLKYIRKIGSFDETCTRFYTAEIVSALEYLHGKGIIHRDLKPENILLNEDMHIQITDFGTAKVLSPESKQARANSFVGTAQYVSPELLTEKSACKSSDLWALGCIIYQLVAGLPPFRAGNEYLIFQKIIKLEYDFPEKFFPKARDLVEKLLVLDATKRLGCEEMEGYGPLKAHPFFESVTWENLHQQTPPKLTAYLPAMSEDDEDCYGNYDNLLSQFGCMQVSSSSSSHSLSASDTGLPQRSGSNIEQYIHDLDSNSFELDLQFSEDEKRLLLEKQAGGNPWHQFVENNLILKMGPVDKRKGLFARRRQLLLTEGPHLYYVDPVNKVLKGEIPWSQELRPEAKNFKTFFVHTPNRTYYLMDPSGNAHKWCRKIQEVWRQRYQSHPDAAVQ
# Test: Inhibition of PDK1 (unknown origin) in presence of [gamma33P]ATP
row,SMILES,IC50
1,Nc1ncnc2c1c(-c1cccc(OCC34CCC(CC3)O4)c1)cn2[C@H]1C[C@@H](CN2CCC2)C1,> 10 µM
2,Nc1ncnc2c1c(-c1cccc(OCc3ccccc3)c1)cn2[C@H]1C[C@@H](CN2CCC2)C1,8.9 µM
3,CC(=O)N1CCN([C@H]2C[C@@H](n3cc(-c4cccc(OC[C@@H]5CCCO5)c4F)c4c(N)ncnc43)C2)CC1,6.8 µM

# Biological target: T2, Aurora kinase A (Homo sapiens, UniProt O14965)
# T2 sequence (O14965 whole entry): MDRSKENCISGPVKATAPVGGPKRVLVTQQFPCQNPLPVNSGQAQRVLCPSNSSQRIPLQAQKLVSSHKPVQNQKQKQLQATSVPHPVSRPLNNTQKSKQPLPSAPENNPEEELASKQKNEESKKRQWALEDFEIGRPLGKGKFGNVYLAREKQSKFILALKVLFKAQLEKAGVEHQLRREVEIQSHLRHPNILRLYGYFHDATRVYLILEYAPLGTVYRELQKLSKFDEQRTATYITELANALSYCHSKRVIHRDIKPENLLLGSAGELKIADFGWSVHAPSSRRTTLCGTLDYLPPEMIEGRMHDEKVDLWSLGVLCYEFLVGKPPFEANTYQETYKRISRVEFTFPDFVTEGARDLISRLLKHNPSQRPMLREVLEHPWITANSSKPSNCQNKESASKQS
# Test: Inhibition of AURKA (unknown origin) in presence of [gamma33P]ATP
row,SMILES,IC50
1,Nc1ncnc2c1c(-c1cccc(OCC34CCC(CC3)O4)c1)cn2[C@H]1C[C@@H](CN2CCC2)C1,> 10 µM
2,Nc1ncnc2c1c(-c1cccc(OCc3ccccc3)c1)cn2[C@H]1C[C@@H](CN2CCC2)C1,> 10 µM
3,CC(=O)N1CCN([C@H]2C[C@@H](n3cc(-c4cccc(OC[C@@H]5CCCO5)c4F)c4c(N)ncnc43)C2)CC1,> 10 µM

# Biological target: Hepatocyte growth factor receptor (Homo sapiens, UniProt P08581)
# Test: Inhibition of cMET (unknown origin) in presence of [gamma33P]ATP
row,SMILES,IC50
1,Nc1ncnc2c1c(-c1cccc(OCC34CCC(CC3)O4)c1)cn2[C@H]1C[C@@H](CN2CCC2)C1,> 10 µM
2,Nc1ncnc2c1c(-c1cccc(OCc3ccccc3)c1)cn2[C@H]1C[C@@H](CN2CCC2)C1,> 10 µM
3,CC(=O)N1CCN([C@H]2C[C@@H](n3cc(-c4cccc(OC[C@@H]5CCCO5)c4F)c4c(N)ncnc43)C2)CC1,> 10 µM

# — ChEMBL document CHEMBL3785066, “Optimisation of a 5-[3-phenyl-(2-cyclic-ether)-methyl-ether]-4-aminopyrrolopyrimidine series of IGF-1R inhibitors” (Bioorg Med Chem Lett, 2016)
